From PMC5874678, “Bryonolic Acid Blocks Cancer Cell Clonogenicity and Invasiveness through the Inhibition of Fatty Acid: Cholesteryl Ester Formation” (Biomedicines, 2018)

What was measured:
[1] = molecular target: T1, cholesterol-5,6-epoxide hydrolase (ChEH) (Rattus norvegicus, UniProt Q9JJ46+Q9Z2Z8); experiment: Cholesterol epoxide hydrolase (ChEH) inhibition assay; assay type: biochemical; settings: 150 μg rat liver microsomal proteins, 10 and 20 μM [14C]α-CE, compounds 0.01 to 1000 μM
T1 construct: from tissue; host or cells: rat liver microsomes
T1 sequence (Q9JJ46 2-230 limits assumed): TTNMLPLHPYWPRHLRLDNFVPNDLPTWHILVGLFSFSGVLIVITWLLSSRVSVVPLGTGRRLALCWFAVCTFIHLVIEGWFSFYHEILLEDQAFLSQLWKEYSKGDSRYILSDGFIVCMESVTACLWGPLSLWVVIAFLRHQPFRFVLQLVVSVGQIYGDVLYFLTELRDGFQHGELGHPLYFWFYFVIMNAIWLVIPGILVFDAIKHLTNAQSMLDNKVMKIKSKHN
T1 sequence (Q9Z2Z8 1-471): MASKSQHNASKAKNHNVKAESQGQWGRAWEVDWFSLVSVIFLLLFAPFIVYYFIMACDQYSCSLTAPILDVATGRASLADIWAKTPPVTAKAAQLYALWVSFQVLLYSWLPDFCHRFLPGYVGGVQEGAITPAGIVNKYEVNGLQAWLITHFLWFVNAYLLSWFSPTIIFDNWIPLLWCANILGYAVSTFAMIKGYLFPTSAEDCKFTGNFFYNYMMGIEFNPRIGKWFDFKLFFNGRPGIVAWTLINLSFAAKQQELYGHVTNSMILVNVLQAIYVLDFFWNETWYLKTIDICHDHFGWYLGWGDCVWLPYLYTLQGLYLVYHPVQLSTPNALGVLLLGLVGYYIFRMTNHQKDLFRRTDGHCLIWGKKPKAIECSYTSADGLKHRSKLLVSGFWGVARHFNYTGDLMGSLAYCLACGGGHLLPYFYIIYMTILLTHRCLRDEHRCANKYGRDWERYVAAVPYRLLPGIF
Method: Inhibition of ChEH activity was measured as described previously on a whole-cell assay using MCF-7 cells [33]. […] Cells were treated for 24 h with 0.6 μM [^14C]α-CE.
The mixtures were incubated over a period of 0 to 30 min. The tubes were placed in ice cold distilled water to stop the reaction and the addition of 1.5 mL chloroform/methanol (2:1) and reaction buffer (500 mL) followed. After vortexing, the lower phase was aspirated and the residual aqueous phase was extracted with chloroform (1.5 mL). The organic extracts were combined and dried under a gentle stream of nitrogen, followed by suspension in ethanol (60 µL).
Samples were applied to TLC plates that had been heated previously for 1 h at 100 °C and were developed using ethyl acetate. The regions corresponding to authentic CE and cholestane-3β,5α,6β-triol standards were visualized by iodine vapour. Radioactive metabolites were visualized using a Storm apparatus (GE Healthcare) and quantified by densitometry with the software ImageQuant version 5.2 (GE Healthcare).

ACAT in MCF-7 cells = molecular target: T2, ACAT in MCF-7 cells (Homo sapiens, UniProt P35610); experiment: ACAT activity in intact MCF-7 cells; assay type: cell-based; settings: MCF-7, 24 h, [14C]cholesterol; for IC50: read-out: IC50, inhibition of ACAT activity in intact cells
T2 construct: endogenous in cells; host or cells: MCF-7, MDA-MB-231, U-87
T2 sequence (P35610 1-550): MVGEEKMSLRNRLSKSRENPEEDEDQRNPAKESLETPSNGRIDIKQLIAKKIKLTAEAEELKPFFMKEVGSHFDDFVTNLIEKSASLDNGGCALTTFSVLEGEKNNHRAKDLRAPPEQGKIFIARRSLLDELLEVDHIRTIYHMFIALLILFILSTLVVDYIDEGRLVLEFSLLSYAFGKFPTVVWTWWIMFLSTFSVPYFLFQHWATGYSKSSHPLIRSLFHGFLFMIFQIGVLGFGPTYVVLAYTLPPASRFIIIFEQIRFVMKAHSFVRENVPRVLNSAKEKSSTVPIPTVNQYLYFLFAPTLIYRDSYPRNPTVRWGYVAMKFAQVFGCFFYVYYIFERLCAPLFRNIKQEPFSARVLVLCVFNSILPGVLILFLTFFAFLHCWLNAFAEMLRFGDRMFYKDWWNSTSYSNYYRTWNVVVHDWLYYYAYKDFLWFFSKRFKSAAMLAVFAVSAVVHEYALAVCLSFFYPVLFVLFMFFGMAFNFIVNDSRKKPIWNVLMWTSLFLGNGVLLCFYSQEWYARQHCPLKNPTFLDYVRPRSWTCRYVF
Method: (§1) MCF-7, MB-231, U-87 and 3T3-EA cells were plated on six-well plates (40,000 cells/well). ACAT activity in intact cells was measured as described previously. Cells were preincubated for 15 min. with solvent vehicle or increasing concentrations of BrA ranging from 1 to 200 μM in complete medium. [^14C]Cholesterol (0.2 μCi/well) was added and the cells were incubated for 24 h. At the end of the incubation, intracellular and secreted lipids in the supernatant were extracted and then separated by TLC as described previously. Free and esterified cholesterol were identified using purified ^14C commercial standards and the radioactivity of each individual lipid was quantified using a phosphor screen (Storm; GE Healthcare, Chicago, IL, USA). ACAT activity is expressed as the percentage of the ACAT activity measured in the absence of inhibitors (cells treated with solvent vehicle).
(§2) Cells were plated on 6-well plates. […]. [^14C]cholesterol (0.2 μCi/well) was added and cells were incubated for 24 h. At the end of the incubation, intracellular lipids were extracted as described in [30] and then separated by TLC as described previously. Free and esterified cholesterol were identified using purified [^14C] standards and the radioactivity associated with each individual lipid was quantified using a Phosphoscreen (Storm; Molecular Dynamics). ACAT activity is expressed as the percentage of the ACAT activity measured in the absence of inhibitors (cells treated with solvent vehicle).

ACAT in MB-231 cells = molecular target: T3, ACAT in MB-231 cells (Homo sapiens, UniProt P35610); experiment: ACAT activity in intact MB-231 cells; assay type: cell-based; settings: MB-231, 24 h, [14C]cholesterol; for IC50: read-out: IC50, inhibition of ACAT activity in intact cells
T3 construct: endogenous in cells; host or cells: MCF-7, MDA-MB-231, U-87
T3 sequence (P35610 1-550): T2 sequence (P35610 1-550)
Method: as §1, §2

ACAT in U-87 cells = molecular target: T4, ACAT in U-87 cells (Homo sapiens, UniProt P35610); experiment: ACAT activity in intact U-87 cells; assay type: cell-based; settings: U-87, 24 h, [14C]cholesterol; for IC50: read-out: IC50, inhibition of ACAT activity in intact cells
T4 construct: endogenous in cells; host or cells: MCF-7, MDA-MB-231, U-87
T4 sequence (P35610 1-550): T2 sequence (P35610 1-550)
Method: as §1, §2

[2] = molecular target: T5, ACAT in NIH-3T3-CCK2R-E151A cells (3T3-EA) (Mus musculus, UniProt Q61263); experiment: ACAT activity in intact 3T3-EA cells; assay type: cell-based; settings: 24 h, [14C]cholesterol; for IC50: read-out: IC50, inhibition of ACAT activity in intact cells
T5 construct: endogenous in cells; host or cells: NIH-3T3-CCK2R-E151A (3T3-EA)
T5 sequence (Q61263 1-540): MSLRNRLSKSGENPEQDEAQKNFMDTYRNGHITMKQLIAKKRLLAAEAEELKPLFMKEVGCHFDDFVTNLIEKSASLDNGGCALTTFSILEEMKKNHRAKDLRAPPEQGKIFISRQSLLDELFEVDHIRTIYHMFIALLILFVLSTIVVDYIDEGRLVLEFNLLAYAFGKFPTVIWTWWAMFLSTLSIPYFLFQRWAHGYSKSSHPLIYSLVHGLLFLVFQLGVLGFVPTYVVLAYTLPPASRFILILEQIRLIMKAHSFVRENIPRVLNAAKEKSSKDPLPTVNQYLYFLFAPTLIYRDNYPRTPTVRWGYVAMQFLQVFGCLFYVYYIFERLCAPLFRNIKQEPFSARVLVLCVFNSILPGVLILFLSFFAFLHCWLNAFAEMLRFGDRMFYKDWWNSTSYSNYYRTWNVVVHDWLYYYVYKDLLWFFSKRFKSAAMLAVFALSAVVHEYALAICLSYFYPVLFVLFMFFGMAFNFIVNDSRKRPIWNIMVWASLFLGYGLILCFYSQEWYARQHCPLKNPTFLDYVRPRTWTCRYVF
Method: as §1, §2

ERα = molecular target: T6, ERα (Homo sapiens, UniProt P03372); experiment: Oestrogen receptor competition binding assay, ERα; settings: n.m. = no measurable inhibition of binding
T6 sequence (P03372 1-595): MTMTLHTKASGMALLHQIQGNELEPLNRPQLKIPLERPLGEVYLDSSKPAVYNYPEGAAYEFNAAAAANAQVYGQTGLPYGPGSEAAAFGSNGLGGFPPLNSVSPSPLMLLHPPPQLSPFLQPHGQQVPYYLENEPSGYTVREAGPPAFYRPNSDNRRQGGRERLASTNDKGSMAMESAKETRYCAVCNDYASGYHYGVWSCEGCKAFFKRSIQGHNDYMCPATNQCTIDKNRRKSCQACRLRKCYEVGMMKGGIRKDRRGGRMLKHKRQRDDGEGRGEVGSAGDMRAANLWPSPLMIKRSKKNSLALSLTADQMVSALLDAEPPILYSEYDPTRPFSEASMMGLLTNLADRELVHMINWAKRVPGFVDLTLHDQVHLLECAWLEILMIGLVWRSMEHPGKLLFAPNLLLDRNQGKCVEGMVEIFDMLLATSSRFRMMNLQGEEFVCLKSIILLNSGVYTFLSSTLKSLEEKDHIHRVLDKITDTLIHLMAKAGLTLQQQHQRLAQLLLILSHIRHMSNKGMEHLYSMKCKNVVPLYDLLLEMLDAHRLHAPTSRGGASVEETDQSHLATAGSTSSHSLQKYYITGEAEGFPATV
Method: (§3) Competition binding to ERα and ERβ was measured exactly as described previously.

ERβ = ERβ (Homo sapiens, UniProt Q92731); experiment: Oestrogen receptor competition binding assay, ERβ; settings: n.m. = no measurable inhibition of binding
Method: as §3

[3] = tested on: MCF-7, MB-231, U-87 and 3T3-EA cells; experiment: Clonogenic assay (colony formation); assay type: cell-based; settings: Homo sapiens, MCF7, four tested cell lines, vs solvent vehicle, read-out: inhibition of cancer cell colony formation
Method: Following trypsinization of the cells, they were plated in tissue culture plates (60 mm) at a density of 500–1000 per plate. After adherence for 24 h, the drugs were added at the chosen final concentrations from freshly prepared stock solutions. The plates were washed twice with serum-free medium after 24 to 72 h incubation. Fresh medium was added and the plates were incubated at 37 °C until the colonies became visible. After incubation, the plates were washed with PBS and stained using Coomassie brilliant blue. The stained colonies were counted and are reported as the percentage of control cells (ethanol treated (0.01% (v/v)).

[4] = tested on: MCF-7, MB-231, U-87 and 3T3-EA cells; experiment: Cell invasion assay (Matrigel-coated filters); assay type: cell-based
Method: Cells were added to six-well plates (40,000 cells/well) containing Dulbecco's Modified Eagle Medium (DMEM) and 10% FCS. Following incubation for 24 h, the cells were treated for a further 24 h in the presence of the test compounds, or else vehicle in DMEM and 2% Fetal Calf Serum (FCS). The cells were harvested and counted. Cells (20,000) were placed in serum-free DMEM on the surface of Nunc filters (8 mm diameter, […]; Nalgen Nunc International, Rochester, NY, USA). The filters were coated with growth factor-reduced Matrigel ([…] Matrigel; BD Biosciences, San Jose, CA, USA) in the presence of the test compounds or else vehicle. The base of the filter was filled with 10% FCS/DMEM. Following incubation for 48 h at 37 °C, cells which had invaded the Matrigel and attached themselves to the base of the filter were fixed, stained with Giemsa stain and counted microscopically.

ERβ, sequence (Q92731 whole entry, species assumed): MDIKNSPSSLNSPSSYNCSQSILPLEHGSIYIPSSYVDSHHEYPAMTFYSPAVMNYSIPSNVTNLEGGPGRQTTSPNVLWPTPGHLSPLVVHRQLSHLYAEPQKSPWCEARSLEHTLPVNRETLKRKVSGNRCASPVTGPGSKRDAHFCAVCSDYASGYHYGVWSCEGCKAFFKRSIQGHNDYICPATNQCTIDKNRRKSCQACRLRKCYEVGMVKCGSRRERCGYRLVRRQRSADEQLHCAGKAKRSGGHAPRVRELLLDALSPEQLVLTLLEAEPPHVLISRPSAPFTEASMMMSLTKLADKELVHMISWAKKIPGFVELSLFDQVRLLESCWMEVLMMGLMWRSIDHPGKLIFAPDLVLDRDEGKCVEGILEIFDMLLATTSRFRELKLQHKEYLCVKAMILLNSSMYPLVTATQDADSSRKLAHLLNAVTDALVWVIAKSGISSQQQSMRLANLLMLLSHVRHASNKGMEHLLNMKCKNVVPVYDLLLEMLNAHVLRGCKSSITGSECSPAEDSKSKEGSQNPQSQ

Row | IC50, ChEH inhibition [1] | IC50 (ACAT in MCF-7 cells) [µM] | IC50 (ACAT in MB-231 cells) [µM] | IC50 (ACAT in U-87 cells) [µM] | IC50 [2] [µM] | IC50, competition with radiolabelled 17β-estradiol binding to ERα (ERα) | IC50, competition with radiolabelled 17β-estradiol binding to ERβ (ERβ) | IC50, ChEH inhibition ([1]; listed as BrA) | IC50, inhibition of ACAT activity in intact cells (ACAT in MCF-7 cells) | IC50, inhibition of ACAT activity in intact cells (ACAT in MB-231 cells) | IC50, inhibition of ACAT activity in intact cells (ACAT in U-87 cells) | IC50, inhibition of ACAT activity in intact cells [2] | SMILES | inhibition at 25 µM [3] [%] | inhibition of cell invasiveness ([4]; 25 μM, 24 h pre-treatment, 48 h invasion, four cell lines) | effect of added cholesteryl oleate on inhibition of cell invasiveness ([4]; cholesteryl oleate 4 µg/mL, MB-231 and U87 cells)
1 | n.m. | 53.7 ± 4.2 | 58.3 ± 8.1 | 61.4 ± 9.4 | 60.2 ± 8 | n.m. | n.m. | – | – | – | – | – | C=C(C)[C@@H]1CC[C@]2(C(=O)O)CC[C@]3(C)[C@H](CC[C@@H]4[C@@]5(C)CC[C@H](O)C(C)(C)[C@@H]5CC[C@]43C)[C@@H]12 [betulinic acid] | – | – | –
2 | n.m. | 22.5 ± 3.7 | 29.5 ± 5.5 | 17.5 ± 4.8 | 19.4 ± 7.6 | n.m. | n.m. | does not inhibit ChEH | – | – | – | – | CC1(C)[C@@H](O)CC[C@]2(C)C3=C(CC[C@@H]12)[C@@]1(C)CC[C@@]2(C)CC[C@@](C)(C(=O)O)C[C@H]2[C@]1(C)CC3 [bryonolic acid, D-C friedoolean-8-en-3β-ol-29 oic acid] | > 50 | observable in the four cell lines | blocked the inhibition of cell invasiveness triggered by BrA
3 | n.m. | – | – | – | – | – | n.m. | – | n.m. | n.m. | n.m. | n.m | C[C@H]1[C@H](C)CC[C@]2(C(=O)O)CC[C@]3(C)C(=CC[C@@H]4[C@@]5(C)CC[C@H](O)C(C)(C)[C@@H]5CC[C@]43C)[C@H]12 [ursolic acid] | – | – | –

More lines, now with the values behind:

Row | SMILES | IC50, ChEH inhibition [1] | IC50 (ACAT in MCF-7 cells) [µM] | IC50 (ACAT in MB-231 cells) [µM] | IC50 (ACAT in U-87 cells) [µM] | IC50 [2] [µM] | IC50, competition with radiolabelled 17β-estradiol binding to ERα (ERα) | IC50, competition with radiolabelled 17β-estradiol binding to ERβ (ERβ) | IC50, ChEH inhibition ([1]; listed as BrA) | IC50, inhibition of ACAT activity in intact cells (ACAT in MCF-7 cells) | IC50, inhibition of ACAT activity in intact cells (ACAT in MB-231 cells) | IC50, inhibition of ACAT activity in intact cells (ACAT in U-87 cells) | IC50, inhibition of ACAT activity in intact cells [2] | inhibition at 25 µM [3] [%] | inhibition of cell invasiveness ([4]; 25 μM, 24 h pre-treatment, 48 h invasion, four cell lines) | effect of added cholesteryl oleate on inhibition of cell invasiveness ([4]; cholesteryl oleate 4 µg/mL, MB-231 and U87 cells)
4 | C[C@]12CC[C@@H]3c4ccc(O)cc4CC[C@H]3[C@@H]1CC[C@@H]2O [E2, 17β-estradiol] | n.m. | – | – | – | – | – | – | – | – | – | – | – | – | – | –
5 | CCCCCCCCCC[Si](C)(C)CCC(=O)NC(Cc1ccc(C)cc1)c1ccccc1 (centres unmarked) [sah 58-035, 3-[decyldimethylsilyl]-N-[2-(4-methylphenyl)-1-phenylethyl]-propanamide] | – | 5.1 ± 0.5 | 9.1 ± 1.4 | 9.2 ± 2.2 | 7.4 ± 1.8 | – | – | – | – | – | – | – | – | – | –
